Experimental data taken from publication PMC3662054 (Journal of biological inorganic chemistry : JBIC : a …, 2012).

Target: T1, 20S proteasome (chymotrypsin-like activity) (Homo sapiens, UniProt P28074)
T1 sequence (P28074 60-263): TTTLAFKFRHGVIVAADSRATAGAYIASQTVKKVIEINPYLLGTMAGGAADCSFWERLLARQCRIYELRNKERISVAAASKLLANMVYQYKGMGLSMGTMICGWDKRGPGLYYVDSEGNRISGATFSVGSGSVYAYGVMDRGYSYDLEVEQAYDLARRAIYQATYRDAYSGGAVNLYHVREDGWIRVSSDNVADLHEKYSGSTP
Assay: fluorogenic Suc-LLVY-AMC hydrolysis by purified […] proteasome
Format: biochemical

Row | Compound | IC50 [µM]
1 | O=C([O-])Cc1c[nH]c2ccccc12.O=C([O-])Cc1c[nH]c2ccccc12.O=C([O-])Cc1c[nH]c2ccccc12.O=C([O-])Cc1c[nH]c2ccccc12.[Cu+2].[Cu+2] [compound 3, Complex 3] | 3
2 | O=C([O-])CCc1c[nH]c2ccccc12.O=C([O-])CCc1c[nH]c2ccccc12.[Cu+2].c1cnc2c(c1)ccc1cccnc12 [compound 6, Complex 6] | 3.3
